Laboratory results: patent US20060057669A1, “Inactive transcription factor tif-ia and uses thereof” (priority 2002, published 2006)

Tests used:
Pol I transcription [1] = test: In vitro transcription: TIF-IA mutants restoring rDNA transcription of nuclear extract from density-arrested FM3A cells; type: biochemical, murine
Method: (A) Transcriptional activity of TIF-IA mutants in vitro. FLAG-tagged wild-type TIF-IA and the indicated single or double point mutants were overexpressed in HEK293T cells, immunopurified, and 20 and 40 ng were assayed for their capability to restore rDNA transcriptional activity of nuclear extract from density-arrested FM3A cells. The amount and purity of TIF-IA were estimated on silver-stained SDS-polyacrylamide gels and Western blots (data not shown).
(A) Transcriptional activity of TIF-IAS199A and TIF-IAS199D in vitro. FLAG-tagged wild-type TIF-IA and the indicated mutants were immunopurified from HEK293T cells, and 30 and 60 ng were assayed for their capability to restore transcriptional activity of nuclear extract from density-arrested FM3A cells. The amount and purity of TIF-IA were estimated on silver-stained SDS-polyacrylamide gels (data not shown).
(B) Transcriptional activity of TIF-IAS44A in vitro. FLAG-tagged wild-type TIF-IA and the indicated mutant were assayed for their transcriptional activity in vitro.
(§1) Nuclear extracts were prepared from exponentially growing (8×10^5 cells/ml), density-arrested or PD98059-treated (CN Bioscience, Bad Soden, Germany) 40 μM, 0.5 hr) or rapamycin-treated FM3A cells (ATCC, Manassas, USA). 25 μl assays contained 50 ng of template DNA (pMr600/EcoRI), 30 μg nuclear extract proteins and 12 mM Hepes-KOH, [pH8.0], 0.1 mM EDTA, 5 mM MgCl2, 80 mM KCl, 10 mM creatine phosphate, 12% (v/v) glycerol, 0.66 mM each of ATP, GTP and CTP, 0.01 mM UTP and 0.5 μCi [α-^32P]UTP (5000 Ci/mmol). After incubation for 60 min at 30° C., RNA was extracted and analyzed on non-denaturing 5% polyacrylamide gels
TIF-IA was immunopurified from untransfected NIH3T3 cells or from HEK293T cells overexpressing FLAG-tagged TIF-IA. 4×10^6 cells were lysed in 0.8 ml IP buffer (20 mM Tris-HCl [pH 7.4], 200 mM NaCl, 2 mM EDTA, 2 mM EGTA, 1% Triton X-100, 0.5 mM PMSF, 1 μg/ml aprotinin, 5 μg/ml leupeptin and 1 μg/ml pepstatin A), centrifuged at 10,000 g for 30 min, and the supernatants were incubated for 4 hr at 4° C. with either 10 μg anti-TIF-IA antibodies bound to 20 μl protein G-agarose or with anti-FLAG (M2) agarose (Sigma-Aldrich Corp., Missouri, USA). The immunocomplexes were successively washed with buffer AM (20 mM Tris-HCl [pH 8.0], 5 mM MgCl2, 0.1 mM EDTA, 20% glycerol) containing 400 and 100 mM KCl, respectively. The amount and purity of TIF-IA was estimated on silver-stained polyacrylamide gels and similar amounts of bead-bound TIF-IA were used in in vitro transcription assays. GST fusion proteins were expressed in E. coli BL21(DE3) and purified on Glutathione-Sepharose 4B according to the manufacturer's instructions.
To assess the functional relevance of S633 and S649 phosphorylation on transcriptional activity, the respective S→A and S→D single or double point mutants were purified from transfected cells and assayed for their capability to rescue transcription of extracts from density-arrested cells. […] Thus, phosphorylation of TIF-IA at S649 and S633 is required for transcriptional activity.
Phosphorylation of peptide a should inhibit TIF-IA activity, while phosphorylation of peptide b, e.g. S44, should augment TIF-IA activity.

Pol I transcription [2] = test: In vitro transcription: TIF-IA mutants added to nuclear extract from exponentially growing FM3A cells; type: biochemical, murine; details: 20 and 40 ng added to 15 ug nuclear extract
Method: 20 and 40 ng of the indicated TIF-IA mutants were added to 15 ug nuclear extract from exponentially growing FM3A cells and rDNA transcription was assayed.
as §1
Given that phosphorylation of TIF-IA at serine 649 is essential for transcription, excess of TIF-IAS649A should impair Pol I transcription. To test this, we examined the effect of exogenous wild-type and mutant TIF-IA on transcriptional activity of extracts from exponentially growing cells.

HEK293T cells = test: Quantitative fluorimetric viability assay with calcein-AM; type: cell-based; details: 24, 36, 48 and 60 hr after transfection; 2 μM calcein-AM
Method: (B) Quantitative fluorimetric viability assay with calcein-AM. HEK293T cells were transfected with TIF-IA or the indicated point mutants. […] Viable cells were measured 24, 36, 48 and 60 hr after transfection by incubation with […] calcein-AM. The gradual increase in fluorescence intensity was recorded with a fluorescence multi-well plate reader for 20 min with an excitation wavelength of 485 nm and an emission wavelength of 530 nm. The proliferation rate of mock-transfected cells and cells overexpressing TIF-IA is shown at the left. Plots show the accumulation of calcein fluorescence (arbitrary units) against time. Growth rates calculated from linear regression curves are shown at the right. Values are presented as the mean±SD from three independent experiments performed in duplicates.
Conversion of calcein-AM (calcein acetoxymethyl ester, (CN Bioscience GmbH, Bad Soden, Germany) to calcein was used to measure cell proliferation. 12 hr after transfection, HEK293T cells were seeded to 96-well micro-plates at 1×10^4 cells/well. After 24, 36, 48 and 60 hr, cells were washed with PBS, incubated with 2 μM calcein-AM, and the gradual increase in fluorescence intensity within the cells was recorded by a fluorescence multi-well plate reader (CytoFluor Series 4000/TC, PerSeptive Biosystems, (Applied Biosystems, Forster City, USA) for 20 min in 1 min intervals. Excitation wavelength used for measurements of fluorescence was 485 nm with a bandwidth of 20 nm; emission wavelength was 530 nm with a bandwidth of 25 nm. Under the experimental conditions used, there is a direct correlation between the accumulation ratio of intracellular calcein fluorescence and the number of viable cells. The data from three independent experiments were analyzed by Sigmaplot and expressed as the mean±standard deviation. For statistical analysis, student's t test was used. Differences with a P<0.01 were considered statistically significant.
Given the functional significance of ERK/RSK-directed TIF-IA phosphorylation on Pol I transcription, mutations that enhance or abrogate TIF-IA activity may have a positive or negative effect on cell growth. To test this, HEK293T cells were transfected with cDNAs encoding wild-type or mutant TIF-IA which harbor single or double point mutations at S649 and S633. The expression of TIF-IA was estimated on Western blots and the cellular growth rate was measured by calcein-AM staining. Calcein-AM is a non-fluorescent, hydrophobic compound that is rapidly hydrolyzed by intracellular esterases releasing hydrophilic fluorescent calcein. Thus, cellular calcein fluorescence correlates with the amount of viable cells. […] Cells expressing FLAG-tagged wild-type or mutant TIF-IA were stained with FITC-conjugated anti-FLAG antibodies, identified by FACS and cell numbers were calculated by measuring the ratio of stained cells versus an internal standard. […] Conversely, the number of cells expressing TIF-IAS649A was 33% lower than the control. […] Taken together, the results reveal a striking correlation between phosphorylation of TIF-IA at serine 649, cellular rRNA synthetic activity and cell cycle progression.

Pol I = test: Co-immunoprecipitation of Pol I with TIF-IA mutants from HEK293T cells; type: binding, human
Method: (§2) (B) A mutant that mimics phosphorylation of TIF-IA at S199 fails to interact with Pol I and TIF-IB. FLAG-tagged wild-type TIF-IA or the indicated point mutants were overexpressed in HEK293T cells and immunoprecipitated from cell lysates with anti-FLAG antibodies (M2 agarose). Co-precipitated Pol I and TIF-IB/SL1 were visualized on Western blots with anti-RPA116 and anti-TAFI110 antibodies.
(§3) Immunoprecipitations were carried out from human cells overexpressing FLAG-tagged TIF-IA. Cells were lysed in IP buffer, cleared by centrifugation at 10,000×g for 30 min, and the supernatants were incubated for 4 hr at 4° C. with anti-FLAG (M2) agarose (Sigma). To analyze the interaction of TIF-IA with TIF-IB/SL1, the immunoprecipitates were washed with IP buffer and TIF-IB/SL1 was visualized on immunoblots with α-TAFI110 antibodies. To monitor the interaction of TIF-IA with Pol I, the immunoprecipitates were washed with IP buffer containing 600 mM NaCl and Pol I was analyzed on Western blots using antibodies against the second largest subunit of Pol I (RPA116) or PAF67 (Seither et al., J. Biol. Chem. 382 (2001), 1163-1170).
(§4) Given the importance of mTOR-mediated alterations in the phosphorylation pattern on TIF-IA activity, one could predict that either phosphorylation of S199, dephosphorylation of S44 or both regulate the interaction of TIF-IA with the Pol I transcription apparatus. It was therefore examined whether the S→A or S→D point mutant(s) were capable of interacting with Pol I and/or TIF-IB/SL1. For this, TIF-IA was precipitated from cells overexpressing either FLAG-tagged wild-type TIF-IA or the respective S199 and S44 mutant(s), and co-precipitated Pol I and TIF-IB/SL1 were visualized on Western blots.

TIF-IB/SL1 = test: Co-immunoprecipitation of TIF-IB/SL1 with TIF-IA mutants from HEK293T cells; type: binding, human
Method: as §2, §3, §4

[3] = S633/S649 mutants, 20 and 40 ng
[4] = S199 and S44 mutants, 30 and 60 ng

Substance: TIF-IAS633A: TIF-IA point mutant, serine 633 replaced by alanine
- capability to rescue transcription of extracts from density-arrested cells (Pol I transcription [1]; [3]): abolished TIF-IA activity
- effect on transcriptional activity of extracts from exponentially growing cells (Pol I transcription [2]): suppressed transcription well below the basal level

Substance: TIF-IAS633AS649A: TIF-IA double mutant, serines 633 and 649 replaced by alanine
- capability to rescue transcription of extracts from density-arrested cells (Pol I transcription [1]; [3]): abolished TIF-IA activity
- cellular growth rate by calcein-AM staining (HEK293T cells): impaired cell growth

Substance: TIF-IAS199D: TIF-IA mutant, replacement of S199 by aspartic acid
- capability to rescue transcription of extracts from density-arrested cells (Pol I transcription [1]; [4]): abolished TIF-IA activity
- interaction with Pol I (co-precipitated RPA116) (Pol I): no association of either Pol I or TIF-IB/SL1 could be detected
- interaction with TIF-IB/SL1 (co-precipitated TAFI110) (TIF-IB/SL1): no association of either Pol I or TIF-IB/SL1 could be detected

Substance: S633D: TIF-IA point mutant, serine 633 replaced by aspartic acid
- capability to rescue transcription of extracts from density-arrested cells (Pol I transcription [1]; [3]): less active than wild-type TIF-IA

Substance: TIF-IAS199A: the mutant in which S199 was changed to alanine
- capability to rescue transcription of extracts from density-arrested cells (Pol I transcription [1]; [4]): activated Pol I transcription like wild-type TIF-IA
- interaction with Pol I (co-precipitated RPA116) (Pol I): interacted with both Pol I and TIF-IB/SL1
- interaction with TIF-IB/SL1 (co-precipitated TAFI110) (TIF-IB/SL1): interacted with both Pol I and TIF-IB/SL1

Substance: TIF-IAS633DS649D: TIF-IA double mutant, serines 633 and 649 replaced by aspartic acid
- capability to rescue transcription of extracts from density-arrested cells (Pol I transcription [1]; [3]): TIF-IA activity was increased
- cellular growth rate by calcein-AM staining (HEK293T cells): accelerated cell growth
